Several values for one entry are separate records, joined by “and”; a condition that tells them apart may be missing. Equal entries are not always repeated. Where two headings read alike, the source gives them in different places. Where only a bound is given, the exact number is not on record here.

The nature of data set [1]: Metabolic stability in rat liver microsomes. It counts as in vitro ADME. As to the method:
Metabolic stability assessment: Compounds were incubated with rat liver microsomes at 37° C. for a total of 45 minutes. The reaction was performed at pH 7.4 in 100 mM potassium phosphate buffer containing 0.5 mg/mL of rat liver microsomal protein. Phase I metabolism was assessed by adding NADPH to a final concentration of 1 mM and collecting samples at time points 0, 5, 15, 30 and 45 minutes. All collected samples were quenched 1:1 with ice-cold stop solution (1 μM labetalol and 1 μM glyburide in acetonitrile) and centrifuged to remove precipitated protein. Resulting supernatants were further diluted 1:4 with acetonitrile:water (1:1). Samples were analyzed by LC/MS/MS and calculations for half-life, and in-vitro clearance were accomplished using Microsoft Excel (2007).
For orientation: Microsomes from liver hold many membrane-bound enzymes, among them those of drug oxidation.

The subject of another data set is MDCK-MDR1 cells. The data set is described as follows: Bidirectional MDCK-MDR1 permeability assay. It is filed as in vitro ADME. The settings on record: MDCK-MDR1, 10 μM test article. As to the method:
Permeability Assessment. Bidirectional MDCK-MDR1 permeability assay was performed by Paraza Pharma Inc. (Montreal, Canada). MDCK-mdr1 cells at passage 5 were seeded onto permeable polycarbonate supports in 12-well Costar Transwell plates and allowed to grow and differentiate for 3 days. On day 3, culture medium (DMEM supplemented with 10% FBS) was removed from both sides of the transwell inserts and cells were rinsed with warm HBSS. After the rinse step, the chambers were filled with warm transport buffer (HBSS containing 10 mM HEPES, 0.25% BSA, pH 7.4) and the plates were incubated at 37° C. for 30 min prior to TEER (Trans Epithelial Electric Resistance) measurements.
The buffer in the donor chamber (apical side for A-to-B assay, basolateral side for B-to-A assay) was removed and replaced with the working solution (10 μM test article in transport buffer). The plates were then placed at 37° C. under light agitation. At designated time points (30, 60 and 90 min), an aliquot of transport buffer from the receiver chamber was removed and replenished with fresh transport buffer. Samples were quenched with ice-cold ACN containing internal standard and then centrifuged to pellet protein. Resulting supernatants are further diluted with 50/50 ACN/H2O (H2O only for Atenolol) and submitted for LC-MS/MS analysis. Reported apparent permeability (Papp) values were calculated from single determination.
Atenolol and propranolol were tested as low and […] permeability references.
The apparent permeability (Papp, measured in cm/s) of a compound is determined according to the following formula […]: […]
where dQ/dt is the net rate of appearance in the receiver compartment; A is the area of the Transwell measured in cm^2 (1.12 cm^2); Ci is the initial concentration of compound added to the donor chamber; and 60 is the conversion factor for minute to second.

The nature of data set [2]: Kinetic solubility assessment. It counts as physicochemical. The settings on record: aqueous buffer, kinetic from dmso stock, phosphate buffer, 2 hours room temperature. The method, then:
The solution was agitated on a VX-2500 multi-tube vortexer (VWR International, Radnor, Pa., United States of America) for 2 hours at room temperature. Following agitation, the sample was filtrated on a glass-fiber filter (1 μm) and the eluate was diluted 400-fold with a mixture of acetonitrile: water (1:1). On each experimental occasion, nicardipine and imipramine were assessed as reference compounds for low and high solubility, respectively. All samples were assessed in triplicate and analyzed by LC-MS/MS using electrospray ionization against standards prepared in the same matrix.

The target of the next data set is T1, mouse CB1R (Mus musculus, UniProt P47746).
T1 construct: membranes (10 μg protein) from either ICR mouse cerebellum mice; from tissue; host or cells: cerebellum membranes of ICR mice
T1 sequence (P47746 whole entry): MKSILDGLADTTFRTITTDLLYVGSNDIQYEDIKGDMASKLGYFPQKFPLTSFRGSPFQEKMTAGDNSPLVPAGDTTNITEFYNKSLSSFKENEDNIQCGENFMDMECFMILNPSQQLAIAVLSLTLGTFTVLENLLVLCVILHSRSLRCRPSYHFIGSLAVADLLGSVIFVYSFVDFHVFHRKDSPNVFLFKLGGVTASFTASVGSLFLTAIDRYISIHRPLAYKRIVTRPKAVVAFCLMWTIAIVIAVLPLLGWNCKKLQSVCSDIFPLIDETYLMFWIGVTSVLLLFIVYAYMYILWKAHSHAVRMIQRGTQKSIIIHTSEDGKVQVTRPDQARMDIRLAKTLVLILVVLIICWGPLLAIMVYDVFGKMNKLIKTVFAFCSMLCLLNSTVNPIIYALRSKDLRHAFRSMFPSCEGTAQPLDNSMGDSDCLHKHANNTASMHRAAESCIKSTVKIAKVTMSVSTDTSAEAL
The experiment in a line: [35S]GTPγS binding assay in mouse cerebellum membranes. It is filed as biochemical. As to conditions: for IC50: mouse cerebellum membrane, read-out: mCB1R GTPγS IC50. (GTPγS resists hydrolysis and so accumulates on activated G proteins.)

Data set [3] addresses T2, hCB1R (Homo sapiens, UniProt P21554). The experiment in a line: [35S]GTPγS binding assay in HEK cells stably expressing human CB1R. It is filed as biochemical. Further details: expressed in transfected cells; host or cells: HEK (HEK293) cells, membranes. The settings on record: [CP] = 100 nM, mean (95% confidence interval), read-out: hCB1R [35S]GTPγS binding assay IC50.
Description: (§1) [^35S]GTPγS Binding Assay: For receptor signaling, membranes (10 μg protein) from either ICR mouse cerebellum mice (6-8 weeks old; Enviga
(§2) Non-specific binding was determined by adding 30 μM unlabeled GTPyS. Concentration response curves for allosteric modulators were conducted in the presence of CP55,940 (100 nM or 1 μM) to calculate 1050 values.
(§3) For [^35S]GTPyS experiments, data were normalized to maximal CP55,940 (100 nM) stimulation in the absence of test compound (i.e., vehicle=100%).
The target of data set [4] is T2, hCB1R. The data set is described as follows: Calcium mobilization assay, antagonist mode against CP55,940. It is filed as cell-based. On the set-up: expressed in transfected cells; host or cells: CHO-RD-HGA16 cells (parental line from Molecular Devices). As to conditions: CHO cells expressing human CB1R; against CP55,940 (100 nM); mean ± SEM; read-out: hCB1R Calcium assay IC50. (In general: Calcium flux is commonly read through the fluorescence of an indicator in the cells.)
Description: Calcium Mobilization Assay: CHO-RD-HGA16 cells (Molecular Devices, San Jose, Calif., United States of America) stably expressing the human CB1 receptor were plated into 96-well black-walled assay plates at 25,000 cells/well in 100 pL of Ham's F12 (supplemented with 10% fetal bovine serum, 100 units of penicillin/streptomycin, and 100 µg/mL Normocin) and incubated overnight at 37° C., 5% CO2. Calcium 5 dye (Molecular Devices, San Jose, Calif., United States of America) was reconstituted according to the manufacturer's instructions. The reconstituted dye was diluted 1:40 in prewarmed (37° C.) assay buffer (1x HBSS, 20 mM HEPES, 2.5 mM probenecid, pH 7.4 at 37° C.). Growth medium was removed, and the cells were gently washed with 100 pL of prewarmed (37° C.) assay buffer. The cells were incubated for 45 min at 37° C., 5% CO2 in 200 pL of the diluted Calcium 5 dye solution. […] Serial dilutions of the test compounds were prepared at 10x the desired final concentration in 2.25% BSA/4.5% DMSO/4.5% EtOH/assay buffer. After the dye loading incubation period, the cells were pretreated with 25 pL of the test compound serial dilutions and incubated for 15 min at 37° C. After the pretreatment incubation period, the plate was read with a FLIPR Tetra (Molecular Devices, San Jose, Calif., United States of America). Calcium-mediated changes in fluorescence were monitored every 1 s over a 90 s time period, with the Tetra adding 25 pL of the CP55,940 EC80 concentration at the 10s time point (excitation/emission: 485/525 nm). Relative fluorescence units (RFU) were plotted against the log of compound concentrations. For agonist screens, the above procedure was followed except that cells were pretreated with 2.25% BSA/4.5% DMSO/4.5% EtOH/assay buffer and the Tetra added single concentration dilutions of the test compounds prepared at 10x the desired final concentration in 0.25% BSA/0.5% DMSO/0.5% EtOH/assay buffer. Test compound RFUs were compared to the CP55,940 Emax RFUs to generate % Emax values.
Data Analysis: For calcium mobilization experiments, data were fit to a three-parameter logistic curve to generate IC50 values (GraphPad Prism 6.0, Graphpad Software, San Diego, Calif., United States of America).

Data set [5] addresses T2, hCB1R. The experiment in a line: Intrinsic activity: basal [35S]GTPγS binding in the absence of CP55,940. It is filed as biochemical. As to conditions: up to 10 μM.
In data set [6] the target is T2, hCB1R. The experiment in a line: Real-time BRET CAMYEL cAMP assay in HEK293 cells expressing human CB1. On the set-up: expressed in transfected cells; host or cells: HEK293 cells stably transfected with human CB1, transiently transfected with pcDNA3L-His-CAMYEL sensor. The settings on record: for IC50: [CP] = 100 nM, forskolin-stimulated cAMP. It counts as cell-based.
Description: cAMP Assay: The cAMP assay was performed as previously described. […] Briefly, forskolin (FSK)-stimulated cyclic adenosine monophosphate (cAMP) production was measured in real-time using a transfected bioluminescence resonance energy transfer (BRET) cAMP sensor. The plasmid encodes a cAMP binding domain (Epac1) flanked by yellow fluorescent protein (YFP) and Renilla Luciferase (RLuc) assay, the latter of which can oxidize coelenterazine H and produce a photon as a byproduct. When cAMP is bound to the Epac1 domain, it separates RLuc and YFP so only Rluc emits a photon at a wavelength of 460 nm. When cAMP is not bound, RLuc can excite YFP, emitting light at wavelength 535 nm. A plate reader measures both wavelengths and their ratio, 460/535, is calculated to quantify cAMP levels where increases in the ratio indicate increases in cAMP. Human Embryonic Kidney 293 (HEK293) cells stably transfected with the human cannabinoid type-1 (C131) were maintained at 37° C. at 5% CO2 and seeded in 100 mM dishes for transfection. The next day, cells were given fresh growth media and transfected with 5 pg of pcDNA3L-His-CAMYEL using linear polyethyleneimine (25 kDa, Polysciences, Warrington, Pennsylvania, United States of America) in 1:6 DNA:PEI (ATCC, Manassas, Virginia, United States of America) ratio. The next day, cells were lifted using 1 mM EDTA in PBS and spun down at 200xg for 5 min. The supernatant was removed, and cells were resuspended in growth media and plated on poly-D-lysine (Sigma Aldrich, St. Louis, Missouri, United States of America) coated white 96 well plates at 60,000 cells per well, filling 2 columns of 8 wells each per plate, i.e. 8 samples in duplicate per plate (Perkin Elmer, Waltham, Massachusetts,
United States of America). The following day, media was removed, cells were rinsed with PBS and buffers/reagents/drugs added as following: At 0 min, 175 of stimulation buffer (5 mg/ml bovine serum albumin in HBSS including Ca^2+ and Mg^2+); at 10 min, 25 μL of allosteric modulators added; at 15 min: 25 μL coelenterazine added (5 μM final); at 25 min, 25 μL of forskolin (10 final) with or without CP55,940 (100 nM final) added. […] Ratio of 460/535 is calculated for each time point and plotted across time and area under the curve analysis is conducted for each replicate and averaged by condition/day where each day serves as an independent experiment. Data were calculated as %FSK using the formula [(sample-basal)/(forskolin-basal)×100]. IC50 values were calculated from these normalized concentration-response data using Prism 6 (Graphpad Software, San Diego, Calif., United States of America) using 3 parameter non-linear regression. Data are plotted as mean of at least N=3 independent experiments either normalized to forskolin (concentration response data) or the calculated 460/535 BRET ratio (time course data).

T2 sequence (P21554 whole entry): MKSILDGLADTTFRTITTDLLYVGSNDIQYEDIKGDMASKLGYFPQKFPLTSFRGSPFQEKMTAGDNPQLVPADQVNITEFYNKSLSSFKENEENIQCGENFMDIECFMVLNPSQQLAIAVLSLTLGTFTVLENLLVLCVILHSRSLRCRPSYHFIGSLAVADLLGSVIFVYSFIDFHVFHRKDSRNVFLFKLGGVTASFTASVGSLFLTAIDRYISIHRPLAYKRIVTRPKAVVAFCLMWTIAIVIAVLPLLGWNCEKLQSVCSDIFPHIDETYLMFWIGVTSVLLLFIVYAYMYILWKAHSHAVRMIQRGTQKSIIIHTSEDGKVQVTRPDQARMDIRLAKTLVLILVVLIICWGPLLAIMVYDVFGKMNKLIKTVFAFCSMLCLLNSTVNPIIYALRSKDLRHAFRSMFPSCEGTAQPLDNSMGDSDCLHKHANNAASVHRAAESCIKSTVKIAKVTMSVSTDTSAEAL
Description for mouse CB1R: as §1, §2, §3
Select compounds were evaluated in the CP55,940-induced [^35S]GTPyS binding assays using mouse cerebellum membrane at two CP55,940 concentrations, 100 nM and 1μM.

One may read the half-life as the time in which the quantity being followed falls by half. As usually defined, the solubility is the concentration that dissolves in the medium under given conditions. Lower therefore signals little dissolved substance. What is called IC50 is the concentration at which inhibition is half-maximal. For `O=C(Nc1ccc(Cl)cc1)Nc1cccc(-c2cccc(N3CCCC3)n2)c1` [Compound 2, reference compound], the half-life in data set [1] (NADPH, mean ± SD) is 13 min and 13.4 ± 4.1 min. For the same molecule, in data set [1] (mean ± SD), the Clearance amounted to 113.7 ± 34.4 µL/min/mg. In the data set on MDCK-MDR1 cells, the “Papp A to B” value is on record as 2.6 ± 0 ×10^−6 cm/s and the “Papp B to A” value was 2.2 ± 0.1 ×10^−6 cm/s. The molecule also gave a solubility at 2 h in data set [2] below 0.5 µM. The IC50 on mouse CB1R ([CP] = 100 nM) amounted to 244 nM. On mouse CB1R ([CP] = 1 uM), the IC50 stood at 127 nM.
Turning to `O=C(Nc1ccc(Cl)cc1)Nc1cc(-c2ccccc2)cs1` [Compound 12, 1-(4-Chlorophenyl)-3-(4-phenylthiophen-2-yl)urea], the IC50 on hCB1R [3] was 667 nM; at hCB1R [4] it was 37 ± 2 nM. For the same molecule, the “activity in [35S]GTPγS binding assay against mouse CB1R (in words)” value on mouse CB1R (compared with compound 2) was “weaker potency”.
As to `O=C(Nc1ccc(Cl)cc1)Nc1ncc(-c2ccccc2)s1` [Compound 14, 1-(4-Chlorophenyl)-3-(5-phenyl-1,3-thiazol-2-yl)urea], the IC50 was 604 nM on hCB1R [3] and 79 ± 10 nM at hCB1R [4]. For the same molecule, the “inverse agonism (in words)” value on hCB1R [5] is “some degree of inverse agonism”.
`O=C(Nc1ccc(Cl)cc1)Nc1ccc(-c2ccc(F)cc2)s1` [Compound 18, 1-(4-Chlorophenyl)-3-[5-(4-fluorophenyl)thiophen-2-yl]urea]: the IC50 came out at 537 nM at hCB1R [3], 40 ± 2 nM at hCB1R [4], 174 nM on mouse CB1R ([CP] = 100 nM) and 145 nM at mouse CB1R ([CP] = 1 uM).
For `O=C(Nc1ccc(Cl)cc1)Nc1ccc(-c2cccc(F)c2)s1` [Compound 19, 1-(4-Chlorophenyl)-3-[5-(3-fluorophenyl)thiophen-2-yl]urea], the IC50 at hCB1R [3] stood at 425 nM; at hCB1R [4], 39 ± 6 nM.
With `O=C(Nc1ccc(Cl)cc1)Nc1ccc(-c2ccc(F)cc2F)s1` [Compound 20, 1-(4-Chlorophenyl)-3-[5-(2,4-difluorophenyl)thiophen-2-yl]urea], the half-life in data set [1] (pH 7.4, NADPH, mean ± SD, read-out: Half-life) came out at 72 min. The microsomal CLint in data set [1] (pH 7.4, mean ± SD, read-out: Clearance) is 19.3 ± 1.6 µL/min/mg. The IC50 at hCB1R [3] stood at 84 nM; on hCB1R [4], 22 ± 4 nM; on hCB1R [6], 2290 nM; on mouse CB1R ([CP] = 100 nM), 138 nM; on mouse CB1R ([CP] = 1 uM), 48 nM. In data set [2], the solubility at 2 h was below 0.5 µM.
Turning to `O=C(Nc1ccc(Cl)cc1)Nc1ccc(-c2ccccc2Cl)s1` [Compound 21, 1-(4-Chlorophenyl)-3-[5-(2-chlorophenyl)thiophen-2-yl]urea], the IC50 was 272 nM at hCB1R [3]; 21 ± 2 nM on hCB1R [4]; 1190 nM on hCB1R [6]; 363 nM on mouse CB1R ([CP] = 100 nM); 204 nM at mouse CB1R ([CP] = 1 uM). Further, the “inverse agonism in cAMP assay” value on hCB1R [6] (concentrations up to 10 μM) is recorded as “displayed inverse agonism”.
Consider `O=C(Nc1ccc(Cl)cc1)Nc1ccc(-c2cccc(Cl)c2)s1` [Compound 22, 1-(4-Chlorophenyl)-3-[5-(3-chlorophenyl)thiophen-2-yl]urea], for which the IC50 on hCB1R [3] amounted to 553 nM; at hCB1R [4] it was 40 ± 7 nM.
In the case of `O=C(Nc1ccc(Cl)cc1)Nc1ccc(-c2ccc(Cl)cc2)s1` [Compound 23, 1-(4-Chlorophenyl)-3-[5-(4-chlorophenyl)thiophen-2-yl]urea], the IC50 is 774 nM on hCB1R [3] and 43 ± 7 nM on hCB1R [4].
As to `O=C(Nc1ccc(Cl)cc1)Nc1ccc(-c2ccc(Cl)c(Cl)c2)s1` [Compound 24, 1-(4-Chlorophenyl)-3-[5-(3,4-dichlorophenyl)thiophen-2-yl]urea], the values for the IC50 at hCB1R [3] and on hCB1R [4] were 1720 nM and 111 ± 14 nM, respectively.
On to `O=C(Nc1ccc(Cl)cc1)Nc1ccc(-c2cc(Cl)cc(Cl)c2)s1` [Compound 25, 1-(4-Chlorophenyl)-3-[5-(3,5-dichlorophenyl)thiophen-2-yl]urea], for which the IC50 is 6330 nM at hCB1R [3]; 92 ± 12 nM on hCB1R [4]; above 10000 nM against hCB1R [6]; 3310 nM at mouse CB1R ([CP] = 100 nM); 2400 nM on mouse CB1R ([CP] = 1 uM).
In the case of `CC(=O)c1cccc(-c2ccc(NC(=O)Nc3ccc(Cl)cc3)s2)c1` [Compound 26, 3-[5-(3-Acetylphenyl)thiophen-2-yl]-1-(4-chlorophenyl)urea], the IC50 on hCB1R [3] was 3430 nM; at hCB1R [4], 108 ± 17 nM.
Take `COC(=O)c1cccc(-c2ccc(NC(=O)Nc3ccc(Cl)cc3)s2)c1` [Compound 27, Methyl 3-(5-{[(4-chlorophenyl)carbamoyl]amino}thiophen-2-yl)benzoate]: the values for the IC50 on hCB1R [3] and at hCB1R [4] were 2350 nM and 345 ± 48 nM, respectively.
In the same order, the values of `CS(=O)(=O)c1cccc(-c2ccc(NC(=O)Nc3ccc(Cl)cc3)s2)c1` [Compound 28, 1-(4-Chlorophenyl)-3-[5-(3-methanesulfonylphenyl)thiophen-2-yl]urea] are 3230 nM and 501 ± 58 nM.
With `COc1ccccc1-c1ccc(NC(=O)Nc2ccc(Cl)cc2)s1` [Compound 29, 1-(4-Chlorophenyl)-3-[5-(2-methoxyphenyl)thiophen-2-yl]urea], the IC50 at hCB1R [3] stood at 2020 nM; at hCB1R [4], 58 nM.
In the case of `COc1cccc(-c2ccc(NC(=O)Nc3ccc(Cl)cc3)s2)c1` [Compound 30, 1-(4-Chlorophenyl)-3-[5-(3-methoxyphenyl)thiophen-2-yl]urea], the IC50 amounted to 3280 nM at hCB1R [3]; 61 nM at hCB1R [4]; 6350 nM against hCB1R [6]; 3020 nM at mouse CB1R ([CP] = 100 nM); 1620 nM on mouse CB1R ([CP] = 1 uM).
Regarding `COc1ccc(-c2ccc(NC(=O)Nc3ccc(Cl)cc3)s2)cc1` [Compound 31, 1-(4-Chlorophenyl)-3-[5-(4-methoxyphenyl)thiophen-2-yl]urea], the IC50 was found to be 449 nM on hCB1R [3]; 31 ± 2 nM on hCB1R [4]; 1850 nM on hCB1R [6]; 110 nM at mouse CB1R ([CP] = 100 nM); 120 nM on mouse CB1R ([CP] = 1 uM).
Consider `Cc1cccc(-c2ccc(NC(=O)Nc3ccc(Cl)cc3)s2)c1` [Compound 32, 1-(4-Chlorophenyl)-3-[5-(3-methylphenyl)thiophen-2-yl]urea], for which the concentration for half-maximal inhibition (IC50) came out at 1180 nM on hCB1R [3] and 48 ± 8 nM at hCB1R [4].
Regarding `CN(C)c1cccc(-c2ccc(NC(=O)Nc3ccc(Cl)cc3)s2)c1` [Compound 33, 1-(4-Chlorophenyl)-3-{5-[3-(dimethylamino)phenyl]thiophen-2-yl}urea], the IC50 at hCB1R [3] was 5020 nM; at hCB1R [4], 89 ± 14 nM; at hCB1R [6], above 10000 nM; on mouse CB1R ([CP] = 100 nM), 3470 nM; on mouse CB1R ([CP] = 1 uM) it was 3310 nM.
As for `O=C(Nc1ccc(Cl)cc1)Nc1ccc(-c2cccnc2)s1` [Compound 34, 1-(4-Chlorophenyl)-3-[5-(pyridin-3-yl)thiophen-2-yl]urea], the IC50 at hCB1R [3] turned out to be 298 nM; on hCB1R [4] it was 107 ± 6 nM.

For the origin of these results see patent US20220332695A1, “UREA DERIVATIVES AS CB1 ALLOSTERIC MODULATORS” (RTI INTERNATIONAL, priority 2019, published 2022).
